Values of other authors as cited in paper PMC10715210, “Colistin plasma concentrations are not associated with better clinical outcomes in patients with pneumonia caused by extremely drug-resistant Pseudomonas aeruginosa” (Microbiology Spectrum, 2023).
Positions of bridges follow the written chain, without caps; N, C: chain ends. Non-standard residues stand in square brackets, D forms with d. Residues, ends and D or L forms follow the SMILES beside them. *: point of attachment. X1 = CC[C@H](C)CCCCC(=O)*; Dab = NCC[C@H](N)C(=O)O

Settings: samples drawn at 45 min after the start of infusion; loading dose 9 million IU CMS then 4.5 million IU every 12 hours; cited from earlier work
Procedure: ([10]). […] Concentrations of CMS and formed colistin in plasma were measured as reported previously ([35], [36]). The limits of quantification for colistin and CMS in plasma were 0.20 and 0.50 mg/L, respectively. Based on the almost flat plasma concentration-time profiles of formed colistin at st ...

CC[C@H](C)CCCCC(=O)N[C@@H](CCN)C(=O)N[C@H](C(=O)N[C@@H](CCN)C(=O)N[C@H]1CCNC(=O)[C@H]([C@@H](C)O)NC(=O)[C@H](CCN)NC(=O)[C@H](CCN)NC(=O)[C@H](CC(C)C)NC(=O)[C@@H](CC(C)C)NC(=O)[C@H](CCN)NC1=O)[C@@H](C)O [colistin] (X1-[Dab]T[Dab][Dab][Dab][dL]L[Dab][Dab]T; lactam 4-C)
Colistin plasma concentration: 0.44 (0.14–1.59) mg/L
